From patent US9624224B2, “Inhibitors of Bruton's tyrosine kinase” (Pharmacyclics LLC, priority 2013, dated 2017)

How the values were obtained:
Type in all cases: biochemical
EGFR = EGFR (Homo sapiens, UniProt P00533); test: EGFR kinase inhibition (in vitro kinase assay)
BTK = target: T1, BTK (Homo sapiens, UniProt Q06187); test: Btk in vitro inhibitory activity (TR-FRET, mobility shift or radiometric filter binding kinase assay); conditions: determined using one of the methods outlined in Example 47a, 47b, and 47c
T1 construct: purified from insect cells as a full-length construct containing a N-terminal 6×-His tag; His6 (N); made in house; host or cells: insect cells (baculovirus, Sf21)
Procedure, shortened: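 Full-length N-His-tagged human Btk from insect cells, 8 nM, preincubated 15 min with inhibitor and 0.2 mg/mL poly-Glu-Tyr (4:1) in pH 7.5 Hepes/MgCl2 buffer, then 1 μM ATP for 120 min at RT; radiometric P81 filter read-out. Alternatives: TR-FRET at [ATP]=Km (0.5 nM Btk, IC50 from Ki(app)) or mobility-shift PSR with 12-point 3× curves, 4-parameter fit.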

Lck = Lck (Homo sapiens, UniProt P06239); test: Lck kinase inhibition (in vitro kinase assay)
Procedure, shortened: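 TR-FRET kinase assay at [ATP]=Km^ATP, detected with Eu-anti-pTyr antibody and streptavidin-APC after EDTA quench; 665/615 nm ratio read. Ki(app) fitted across compound concentrations, converted to IC50 via IC50={Ki(app)/(1+[ATP]/Km^ATP)}+[E]total/2; [Lck]total=6 nM.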

Jak3 = target: T2, Jak3 (Homo sapiens, UniProt P52333); test: Jak3 kinase inhibition (in vitro kinase assay)
T2 sequence (P52333 1-1124): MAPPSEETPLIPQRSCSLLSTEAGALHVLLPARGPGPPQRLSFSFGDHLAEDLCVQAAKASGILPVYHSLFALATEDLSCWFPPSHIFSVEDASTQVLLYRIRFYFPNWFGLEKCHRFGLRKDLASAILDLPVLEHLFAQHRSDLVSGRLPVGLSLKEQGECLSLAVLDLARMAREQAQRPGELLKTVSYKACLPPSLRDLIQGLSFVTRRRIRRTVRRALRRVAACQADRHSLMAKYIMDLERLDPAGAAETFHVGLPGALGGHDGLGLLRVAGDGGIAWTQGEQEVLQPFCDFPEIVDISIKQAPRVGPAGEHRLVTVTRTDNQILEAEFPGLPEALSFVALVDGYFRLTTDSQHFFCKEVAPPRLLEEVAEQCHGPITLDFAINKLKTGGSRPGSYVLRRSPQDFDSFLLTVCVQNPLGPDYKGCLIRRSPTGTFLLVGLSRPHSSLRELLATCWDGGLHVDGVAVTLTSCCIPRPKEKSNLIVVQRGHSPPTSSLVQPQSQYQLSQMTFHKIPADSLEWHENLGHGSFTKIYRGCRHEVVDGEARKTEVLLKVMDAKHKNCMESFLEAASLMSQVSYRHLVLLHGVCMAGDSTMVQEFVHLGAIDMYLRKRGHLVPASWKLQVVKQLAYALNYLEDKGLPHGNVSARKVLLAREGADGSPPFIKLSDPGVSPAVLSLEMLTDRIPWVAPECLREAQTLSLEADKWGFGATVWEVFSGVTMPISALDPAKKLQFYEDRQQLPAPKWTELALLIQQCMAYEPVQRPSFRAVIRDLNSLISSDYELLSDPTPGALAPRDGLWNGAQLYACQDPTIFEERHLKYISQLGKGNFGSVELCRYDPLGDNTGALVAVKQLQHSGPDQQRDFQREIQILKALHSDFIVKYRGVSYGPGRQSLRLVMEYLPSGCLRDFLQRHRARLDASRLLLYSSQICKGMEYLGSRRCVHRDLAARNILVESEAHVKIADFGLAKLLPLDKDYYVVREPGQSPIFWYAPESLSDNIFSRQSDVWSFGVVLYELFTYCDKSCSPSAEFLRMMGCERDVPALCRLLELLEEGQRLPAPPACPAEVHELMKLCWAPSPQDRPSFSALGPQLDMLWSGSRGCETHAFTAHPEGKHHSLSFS

Chain of Lck (P06239 whole entry, species assumed): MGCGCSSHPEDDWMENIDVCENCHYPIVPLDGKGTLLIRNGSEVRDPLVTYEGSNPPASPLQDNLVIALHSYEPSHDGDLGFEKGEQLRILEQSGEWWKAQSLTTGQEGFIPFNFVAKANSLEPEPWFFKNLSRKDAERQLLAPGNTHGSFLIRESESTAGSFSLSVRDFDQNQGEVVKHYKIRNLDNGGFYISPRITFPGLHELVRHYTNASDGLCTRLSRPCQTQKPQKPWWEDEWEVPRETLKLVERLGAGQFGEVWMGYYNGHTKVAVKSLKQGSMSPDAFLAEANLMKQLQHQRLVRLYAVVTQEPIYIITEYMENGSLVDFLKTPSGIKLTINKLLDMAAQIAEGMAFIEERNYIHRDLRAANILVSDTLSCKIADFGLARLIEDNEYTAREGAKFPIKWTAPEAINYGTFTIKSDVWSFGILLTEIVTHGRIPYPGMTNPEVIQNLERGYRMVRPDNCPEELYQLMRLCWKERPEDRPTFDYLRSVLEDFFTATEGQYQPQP
T1 sequence (Q06187 whole entry): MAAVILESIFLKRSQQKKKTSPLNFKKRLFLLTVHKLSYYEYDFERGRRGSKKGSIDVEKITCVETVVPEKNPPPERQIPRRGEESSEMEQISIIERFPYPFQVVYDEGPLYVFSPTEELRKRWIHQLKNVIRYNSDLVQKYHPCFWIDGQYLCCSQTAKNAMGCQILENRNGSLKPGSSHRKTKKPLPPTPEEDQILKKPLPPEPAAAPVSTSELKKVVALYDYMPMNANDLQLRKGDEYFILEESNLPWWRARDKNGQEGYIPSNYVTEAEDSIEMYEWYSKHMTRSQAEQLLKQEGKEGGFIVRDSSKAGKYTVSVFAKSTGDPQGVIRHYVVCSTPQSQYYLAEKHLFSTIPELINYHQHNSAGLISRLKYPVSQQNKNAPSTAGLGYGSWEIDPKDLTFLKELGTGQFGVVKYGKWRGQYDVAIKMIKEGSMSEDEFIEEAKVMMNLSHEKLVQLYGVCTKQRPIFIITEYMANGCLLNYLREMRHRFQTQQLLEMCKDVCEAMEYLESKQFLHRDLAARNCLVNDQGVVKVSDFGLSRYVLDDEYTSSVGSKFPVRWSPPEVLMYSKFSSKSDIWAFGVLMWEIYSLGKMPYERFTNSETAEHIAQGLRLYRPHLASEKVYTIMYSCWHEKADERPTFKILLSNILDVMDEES
Chain of EGFR (P00533 25-1210, species assumed): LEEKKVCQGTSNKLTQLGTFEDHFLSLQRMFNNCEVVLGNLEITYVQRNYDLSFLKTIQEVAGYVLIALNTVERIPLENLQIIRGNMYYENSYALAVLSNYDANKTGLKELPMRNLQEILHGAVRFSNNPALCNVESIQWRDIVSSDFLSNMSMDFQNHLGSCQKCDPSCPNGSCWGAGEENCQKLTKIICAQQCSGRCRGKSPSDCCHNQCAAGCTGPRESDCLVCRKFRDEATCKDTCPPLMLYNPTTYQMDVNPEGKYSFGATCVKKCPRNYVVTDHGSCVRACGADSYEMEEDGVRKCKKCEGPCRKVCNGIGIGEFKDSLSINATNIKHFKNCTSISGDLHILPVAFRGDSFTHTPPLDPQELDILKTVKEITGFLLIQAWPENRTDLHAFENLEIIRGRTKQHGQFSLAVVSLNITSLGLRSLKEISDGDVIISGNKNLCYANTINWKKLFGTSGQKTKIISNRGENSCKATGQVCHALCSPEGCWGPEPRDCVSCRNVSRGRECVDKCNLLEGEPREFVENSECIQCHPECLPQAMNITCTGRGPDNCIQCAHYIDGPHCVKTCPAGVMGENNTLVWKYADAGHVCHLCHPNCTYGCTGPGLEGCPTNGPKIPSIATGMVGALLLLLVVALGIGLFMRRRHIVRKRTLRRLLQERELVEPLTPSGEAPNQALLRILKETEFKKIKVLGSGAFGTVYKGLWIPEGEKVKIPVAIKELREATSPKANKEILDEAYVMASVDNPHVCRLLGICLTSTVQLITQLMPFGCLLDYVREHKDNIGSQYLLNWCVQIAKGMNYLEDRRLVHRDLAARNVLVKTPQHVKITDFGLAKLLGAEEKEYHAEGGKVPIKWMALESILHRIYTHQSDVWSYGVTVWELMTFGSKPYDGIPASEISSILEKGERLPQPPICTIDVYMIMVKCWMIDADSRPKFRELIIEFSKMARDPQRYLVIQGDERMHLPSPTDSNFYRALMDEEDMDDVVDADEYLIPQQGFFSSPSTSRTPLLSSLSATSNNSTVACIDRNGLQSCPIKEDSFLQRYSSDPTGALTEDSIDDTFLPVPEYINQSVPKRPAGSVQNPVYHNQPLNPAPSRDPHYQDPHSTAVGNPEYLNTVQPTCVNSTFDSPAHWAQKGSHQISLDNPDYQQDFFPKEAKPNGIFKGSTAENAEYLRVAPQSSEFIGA

Question: What does the source list for Cc1ccnc(NC(=O)c2ccc(-c3nn([C@H]4CC[C@H](NC(=O)/C=C/CN(C)C)CC4)c4ncnc(N)c34)cc2)c1 [Example 28, 4-(4-amino-1-((1,4-trans)-4-((E)-4-(dimethylamino)but-2-enamido)cyclohexyl)-1H-pyrazolo[3,4-d]pyrimidin-3-yl)-N-(4-methylpyridin-2-yl)benzamide]?
Answer: IC50 (EGFR): 100 to 1000 nM; IC50 (BTK): < 100 nM; IC50 (Lck): > 10 µM; IC50 (Jak3): > 10 µM

Question: Which results are given for Cc1ccnc(NC(=O)c2ccc(-c3nn([C@H]4CC[C@H](NC(=O)/C=C/CN(C)C5CC5)CC4)c4ncnc(N)c34)cc2)c1 [Example 29, 4-(4-amino-1-((1,4-trans)-4-((E)-4-(cyclopropyl(methyl)amino)but-2-enamido)cyclohexyl)-1H-pyrazolo[3,4-d]pyrimidin-3-yl)-N-(4-methylpyridin-2-yl)benzamide]?
Answer: IC50 (EGFR): 100 to 1000 nM; IC50 (BTK): < 100 nM; IC50 (Lck): > 10 µM; IC50 (Jak3): > 10 µM
